Key:
Experiment in all cases: relative viability (nuclei count vs DMSO), 5 days (fraction); higher = more cells survive
[1] = compound: Cc1ccc(F)c(NC(=O)Nc2ccc(-c3cccc4[nH]nc(N)c34)cc2)c1 [Linifanib]
Summary of the method: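 Nuclei counted with MetaXpress define viability as the ratio of treated to vehicle wells, given as a median across plates. The lung cancer cell lines were in 1536-well plates, pinned with five √10-spaced library-drug doses and imaged at 4× after 5 days and Hoechst staining. Plates passed with control CV below 25% and at least one doubling.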

[2] = compound: Cc1ccc(F)c(NC(=O)Nc2ccc(-c3cccc4[nH]nc(N)c34)cc2)c1 [Linifanib] + C[C@@H](Oc1cc(-c2cnn(C3CCNCC3)c2)cnc1N)c1c(Cl)ccc(F)c1Cl [Crizotinib] (partner 1 µM)
Summary of the method: (§1)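 Dosing by pin tool came one day after lung cancer cell lines were seeded in 1536-well plates, using either one drug or a fixed anchor-drug dose plus five library-drug doses (not always all listed) in √10 steps. After 5 days, nuclei were counted on 4× images. Relative viability is treated-well nuclei count divided by vehicle-well nuclei count, and values are medians of duplicate plates.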

[3] = compound: Cc1ccc(F)c(NC(=O)Nc2ccc(-c3cccc4[nH]nc(N)c34)cc2)c1 [Linifanib] + NC(=O)Nc1cc(-c2cccc(F)c2)sc1C(=O)N[C@H]1CCCNC1 [AZD7762] (partner 0.2 µM)
Summary of the method: as §1

[4] = compound: Cc1ccc(F)c(NC(=O)Nc2ccc(-c3cccc4[nH]nc(N)c34)cc2)c1 [Linifanib] + Cc1nc(NC(=O)N2CCC[C@H]2C(N)=O)sc1-c1ccnc(C(C)(C)C(F)(F)F)c1 [Alpelisib] (partner 2 µM)
Summary of the method: as §1

[5] = compound: Cc1ccc(F)c(NC(=O)Nc2ccc(-c3cccc4[nH]nc(N)c34)cc2)c1 [Linifanib] + N=C(N)NC(=N)NCCc1ccccc1 [Phenformin] (partner 250 µM)
Summary of the method: as §1

[6] = compound: Cc1ccc(F)c(NC(=O)Nc2ccc(-c3cccc4[nH]nc(N)c34)cc2)c1 [Linifanib] + O=C(c1cc(Cc2n[nH]c(=O)c3ccccc23)ccc1F)N1CCN(C(=O)C2CC2)CC1 [Olaparib] (partner 8 µM)
Summary of the method: as §1

## RERF-LC-KJ
[1]; 0.03162 µM
  relative viability: 1.04
[1]; 0.1 µM
  relative viability: 0.989
[1]; 0.3162 µM
  relative viability: 0.96
[2]; first compound 0.03162 µM
  relative viability: 0.833
[2]; first compound 0.1 µM
  relative viability: 0.778
[2]; first compound 0.3162 µM
  relative viability: 0.745
[3]; first compound 0.03162 µM
  relative viability: 1.03
[3]; first compound 0.1 µM
  relative viability: 1.01
[3]; first compound 0.3162 µM
  relative viability: 0.938
[4]; first compound 0.03162 µM
  relative viability: 0.888
[4]; first compound 0.1 µM
  relative viability: 1.04
[4]; first compound 0.3162 µM
  relative viability: 0.75
[5]; first compound 0.03162 µM
  relative viability: 0.404
[5]; first compound 0.1 µM
  relative viability: 0.479
[5]; first compound 0.3162 µM
  relative viability: 0.439
[6]; first compound 0.03162 µM
  relative viability: 0.875
[6]; first compound 0.1 µM
  relative viability: 1.08
[6]; first compound 0.3162 µM
  relative viability: 0.892

— the supplement of paper PMC10307832
